Measured values reported in ChEMBL document CHEMBL1201862, “PubChem BioAssay data set” (2004).
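Values below derive from 48-hour exposures of cells grown in 96-well plates, with endpoints linearly interpolated between the two concentrations bracketing the appropriate inhibition level. Abbreviation: GI50, concentration required for 50% inhibition of growth.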 Active and inactive are the calls of the source. No stated cut-off is given here; in the data, active = GI50 up to about 1.1 µM and inactive = higher.

How the values were obtained:
Assay in all cases: NCI tumour cell line growth inhibition, 48 h
SK-MEL-28 = test system: SK-MEL-28
HT-29 = test system: HT-29
ACHN = test system: ACHN
UO-31 = test system: UO-31
LOX IMVI = test system: LOX IMVI
COLO 205 = test system: COLO 205
DLD-1 = test system: DLD-1
NCI-H522 = test system: NCI-H522
HCT-15 = test system: HCT-15
SN12C = test system: SN12C
SK-MEL-2 = test system: SK-MEL-2
CAKI-1 = test system: CAKI-1
SF-295 = test system: SF-295
SK-MEL-5 = test system: SK-MEL-5
OVCAR-3 = test system: OVCAR-3
NCI-H460 = test system: NCI-H460
HCC 2998 = test system: HCC 2998
M19-MEL = test system: M19-MEL
U-251 = test system: U-251
XF498 = test system: XF498
SNB-75 = test system: SNB-75
KM12 = test system: KM12
HOP-62 = test system: HOP-62
A549 = test system: A549
UACC-62 = test system: UACC-62
Malme-3M = test system: Malme-3M
HCT-116 = test system: HCT-116
EKVX = test system: EKVX
IGROV-1 = test system: IGROV-1
K562 = test system: K562
CCRF-CEM = test system: CCRF-CEM
OVCAR-8 = test system: OVCAR-8
SNB-19 = test system: SNB-19
SR = test system: SR
SW-620 = test system: SW-620
786-0 = test system: 786-0
NCI-H226 = test system: NCI-H226
SNB-78 = test system: SNB-78
KM-20L2 = test system: KM-20L2
OVCAR-5 = test system: OVCAR-5
HL-60 = test system: HL-60
RPMI-8226 = test system: RPMI-8226
RXF 393 = test system: RXF 393
RXF 631 = test system: RXF 631
UACC-257 = test system: UACC-257
HOP-18 = test system: HOP-18
MOLT-4 = test system: MOLT-4
OVCAR-4 = test system: OVCAR-4
LXFL 529 = test system: LXFL 529
SF-539 = test system: SF-539
SF-268 = test system: SF-268
M14 = test system: M14
DMS-273 = test system: DMS-273
A498 = test system: A498
HOP-92 = test system: HOP-92
DMS-114 = test system: DMS-114
NCI-H23 = test system: NCI-H23
SK-OV-3 = test system: SK-OV-3
TK-10 = test system: TK-10

Measured: GI50

O=[N+]([O-])c1ccc(-c2noc(-c3ccccc3)c2C2=NCCN2)cc1
> 100 µM: HCT-15
inactive: SK-MEL-28 > 100 µM | HT-29 52.1 µM | ACHN > 100 µM | UO-31 24.9 µM | LOX IMVI 71 µM | COLO 205 45.5 µM | DLD-1 > 100 µM | NCI-H522 20.5 µM | SN12C > 100 µM | SK-MEL-2 > 100 µM | CAKI-1 40.3 µM | SF-295 44.7 µM | SK-MEL-5 12.9 µM | OVCAR-3 28.6 µM | NCI-H460 > 100 µM | HCC 2998 > 100 µM | M19-MEL > 100 µM | U-251 84.5 µM | XF498 70.6 µM | SNB-75 68.5 µM | KM12 > 100 µM | HOP-62 29.9 µM | A549 > 100 µM | UACC-62 > 100 µM | Malme-3M > 100 µM | HCT-116 30.1 µM | EKVX > 100 µM | IGROV-1 > 100 µM | K562 > 100 µM | CCRF-CEM > 100 µM | OVCAR-8 > 100 µM | SNB-19 53.2 µM | SR 81.8 µM | SW-620 > 100 µM | 786-0 54 µM | NCI-H226 75.2 µM | SNB-78 39.2 µM | KM-20L2 40.5 µM | OVCAR-5 > 100 µM | HL-60 55.3 µM | RPMI-8226 > 100 µM | RXF 393 38.6 µM | RXF 631 60.3 µM | UACC-257 41.2 µM | HOP-18 21.1 µM | MOLT-4 > 100 µM | OVCAR-4 77.6 µM | LXFL 529 > 100 µM | SF-539 42.7 µM | SF-268 63.2 µM | M14 87.9 µM

Cc1ccc(S(=O)(=O)N/N=C(\c2nc3ccc([N+](=O)[O-])cc3nc2O)C(O)c2ccccc2Cl)cc1 (centres undefined)
78 µM: HCT-15
inactive: SK-MEL-28 > 100 µM | HT-29 > 100 µM | ACHN > 100 µM | UO-31 > 100 µM | LOX IMVI > 100 µM | COLO 205 > 100 µM | DLD-1 > 100 µM | DMS-273 > 100 µM | NCI-H522 6.93 µM | SN12C > 100 µM | SK-MEL-2 > 100 µM | CAKI-1 > 100 µM | SF-295 > 100 µM | A498 > 100 µM | SK-MEL-5 55.3 µM | HOP-92 > 100 µM | OVCAR-3 > 100 µM | NCI-H460 > 100 µM | HCC 2998 > 100 µM | M19-MEL 86.9 µM | U-251 > 100 µM | SNB-75 > 100 µM | KM12 93.8 µM | HOP-62 > 100 µM | A549 > 100 µM | UACC-62 86.9 µM | Malme-3M > 100 µM | HCT-116 > 100 µM | EKVX > 100 µM | IGROV-1 > 100 µM | K562 28.2 µM | CCRF-CEM 17.5 µM | OVCAR-8 > 100 µM | DMS-114 16.7 µM | SNB-19 > 100 µM | SR > 100 µM | SW-620 > 100 µM | NCI-H23 > 100 µM | 786-0 > 100 µM | NCI-H226 > 100 µM | SNB-78 > 100 µM | KM-20L2 > 100 µM | OVCAR-5 > 100 µM | HL-60 27.5 µM | RPMI-8226 61.1 µM | RXF 631 > 100 µM | SK-OV-3 > 100 µM | UACC-257 > 100 µM | TK-10 > 100 µM | HOP-18 > 100 µM | MOLT-4 > 100 µM | OVCAR-4 > 100 µM | LXFL 529 35.8 µM | SF-539 > 100 µM | SF-268 > 100 µM | M14 82.8 µM
